Measured values reported in PubChem BioAssay AID248 (DTP/NCI, 2004).
Where “and” joins values, the source holds several entries; their conditions need not be identical. Equal entries are not always repeated. Inconclusive results and toxic doses are left out. No stated cut-off is given here; in the data, active means T/C of 150% or more; inactive means T/C below 125%.

Tested on: L1210 leukemia ip in BDF1 mice, survival T/C
Test: NCI In Vivo Anticancer Drug Screen. Data for tumor model L1210 Leukemia (intraperitoneal) in B6D2F1 (BDF1) mice
Settings: endpoint: mean survival time, higher = longer survival
Method in brief: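 In this screen, tumor-bearing mice given compound are compared to those given vehicle, and their survival values are reported as a treated-to-control quotient.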

[1] = dose: 100.0 mg/kg/injection, schedule: Q01DX001 (ip), vehicle: carboxymethylcellulose (CMC)
[2] = dose: 200.0 mg/kg/injection, schedule: Q01DX001 (ip), vehicle: carboxymethylcellulose (CMC)
[3] = dose: 100.0 mg/kg/injection, schedule: Q01DX009 (ip), vehicle: Klucel (hydroxypropylcellulose) (HPC)
[4] = dose: 100.0 mg/kg/injection, schedule: Q04DX003 (ip), vehicle: Klucel (hydroxypropylcellulose) (HPC)
[5] = dose: 200.0 mg/kg/injection, schedule: Q01DX009 (ip), vehicle: Klucel (hydroxypropylcellulose) (HPC)
[6] = dose: 200.0 mg/kg/injection, schedule: Q04DX003 (ip), vehicle: Klucel (hydroxypropylcellulose) (HPC)
[7] = dose: 100.0 mg/kg/injection, schedule: Q04DX003 (ip), vehicle: saline with Tween-80
[8] = dose: 200.0 mg/kg/injection, schedule: Q04DX003 (ip), vehicle: saline with Tween-80
[9] = dose: 400.0 mg/kg/injection, schedule: Q04DX003 (ip), vehicle: saline with Tween-80
[10] = dose: 100.0 mg/kg/injection, schedule: Q04DX002 (ip), vehicle: Klucel (hydroxypropylcellulose) (HPC)
[11] = dose: 200.0 mg/kg/injection, schedule: Q04DX002 (ip), vehicle: Klucel (hydroxypropylcellulose) (HPC)
[12] = dose: 400.0 mg/kg/injection, schedule: Q04DX002 (ip), vehicle: Klucel (hydroxypropylcellulose) (HPC)
[13] = dose: 400.0 mg/kg/injection, schedule: Q01DX009 (ip), vehicle: Klucel (hydroxypropylcellulose) (HPC)
[14] = dose: 100.0 mg/kg/injection, schedule: Q01DX001 (ip), vehicle: saline with Tween-80
[15] = dose: 100.0 mg/kg/injection, schedule: Q04DX002 (ip), vehicle: saline with Tween-80
[16] = dose: 200.0 mg/kg/injection, schedule: Q04DX002 (ip), vehicle: saline with Tween-80
[17] = dose: 400.0 mg/kg/injection, schedule: Q04DX002 (ip), vehicle: saline with Tween-80
[18] = dose: 400.0 mg/kg/injection, schedule: Q04DX003 (ip), vehicle: Klucel (hydroxypropylcellulose) (HPC)
[19] = dose: 10.0 mg/kg/injection, schedule: Q01DX001 (ip), vehicle: saline
[20] = dose: 20.0 mg/kg/injection, schedule: Q01DX001 (ip), vehicle: saline
[21] = dose: 40.0 mg/kg/injection, schedule: Q01DX001 (ip), vehicle: saline
[22] = dose: 100.0 mg/kg/injection, schedule: Q01DX001 (ip), vehicle: Klucel (hydroxypropylcellulose) (HPC)
[23] = dose: 200.0 mg/kg/injection, schedule: Q01DX001 (ip), vehicle: Klucel (hydroxypropylcellulose) (HPC)
[24] = dose: 400.0 mg/kg/injection, schedule: Q01DX001 (ip), vehicle: Klucel (hydroxypropylcellulose) (HPC)

Measured: T/C

CC(C)=CCC/C(C)=C\C=N\NC(N)=S
inactive: dose: 50.0 mg/kg/injection, schedule: Q01DX001 (ip), vehicle: carboxymethylcellulose (CMC) 96 % of control | [1] 104 % of control | [2] 104 % of control

Cc1ccc(NC(=O)Nc2ccc(Cl)cc2)c(C)c1
inactive: [1] 101 % of control | [2] 106 % of control | dose: 400.0 mg/kg/injection, schedule: Q01DX001 (ip), vehicle: carboxymethylcellulose (CMC) 98 % of control

O=C(/C=C/c1ccccc1)NN1CCCCC1
inactive: [3] 94 % of control | [4] 100 % of control | [5] 110 % of control | [6] 98 % of control

CCCCNS(=O)(=O)CCCC
inactive: [7] 105 % of control | [8] 101 % of control | [9] 97 % of control

COC(=O)C1=C(C(=O)OC)C2C=CC1C1(C)NC(=O)C21C (stereo unspecified)
inactive: [10] 94 % of control | [11] 91 % of control | [12] 97 % of control

CC1(C)Cc2cc3ccccc3nc2-c2ccccc21
inactive: dose: 25.0 mg/kg/injection, schedule: Q01DX009 (ip), vehicle: saline with Tween-80 97 % of control | dose: 50.0 mg/kg/injection, schedule: Q01DX009 (ip), vehicle: saline with Tween-80 97 % of control | dose: 100.0 mg/kg/injection, schedule: Q01DX009 (ip), vehicle: saline with Tween-80 94 % of control

ClC(Cl)(Cl)C(c1cccs1)c1cccs1
inactive: [3] 94 % of control | [10] 93 % of control | [5] 94 % of control | [11] 96 % of control | [13] 94 % of control | [12] 96 % of control

CCCCCCCCCCCCc1ccc(/C(C)=N/NC(=O)c2ccc[n+](C)c2)cc1
inactive: [14] 93 % of control

Cc1cc(C)c(-c2cc(C(O)C3OC4OC(C)(C)OC4C4OC(C)(C)OC34)on2)c(C)c1 (stereo unspecified)
inactive: [15] 97 % of control | [16] 87 % of control | [17] 87 % of control

CCOC(=O)NC(C)(C)CN(CCO)C(=O)OCC
inactive: [3] 100 % of control | [4] 105 % of control | [5] 97 % of control | [6] 102 % of control | [13] 97 % of control | [18] 93 % of control

COc1ccc(C(C)(C#N)Nc2ccccc2)cc1 (stereo unspecified)
inactive: [7] 98 % of control | [8] 96 % of control

O=C(NCCCl)Nc1cccc2c1CCC2
inactive: [4] 93 % of control | [6] 86 % of control

COc1cccc(NC(=S)N(CCC#N)C2CCCCC2)c1
inactive: [15] 102 % of control | [16] 97 % of control | [17] 97 % of control

O=C(Nc1ccc([N+](=O)[O-])cc1)C(c1ccccc1)c1ccccc1
inactive: dose: 100.0 mg/kg/injection, schedule: Q04DX002 (ip), vehicle: gum acacia 100 % of control | dose: 200.0 mg/kg/injection, schedule: Q04DX002 (ip), vehicle: gum acacia 100 % of control | dose: 400.0 mg/kg/injection, schedule: Q04DX002 (ip), vehicle: gum acacia 93 % of control

OC1CCCCC1[n+]1ccccc1 (stereo unspecified) (tested in a mixture with another compound)
inactive: dose: 100.0 mg/kg/injection, schedule: Q01DX001 (ip), vehicle: saline 103 % of control | dose: 200.0 mg/kg/injection, schedule: Q01DX001 (ip), vehicle: saline 88 % of control | dose: 400.0 mg/kg/injection, schedule: Q01DX001 (ip), vehicle: saline 101 % of control

O=C(OCC1OC(n2c(=O)[nH]c(=S)c3ncsc32)C(OC(=O)c2ccccc2)C1OC(=O)c1ccccc1)c1ccccc1 (stereo unspecified)
inactive: dose: 100.0 mg/kg/injection, schedule: Q01DX005 (ip), vehicle: saline 95 % of control | dose: 200.0 mg/kg/injection, schedule: Q01DX005 (ip), vehicle: saline 91 % of control

CN1N=C([P+](c2ccccc2)(c2ccccc2)c2ccccc2)CC1(c1ccccc1)c1ccccc1
inactive: dose: 75.0 mg/kg/injection, schedule: Q01DX001 (ip), vehicle: saline 103 % of control | dose: 150.0 mg/kg/injection, schedule: Q01DX001 (ip), vehicle: saline 100 % of control

OC(Cc1ccc(-c2ccccc2)cc1)c1ccccc1 (stereo unspecified)
inactive: dose: 50.0 mg/kg/injection, schedule: Q01DX001 (ip), vehicle: saline with Tween-80 93 % of control | [14] 91 % of control | dose: 200.0 mg/kg/injection, schedule: Q01DX001 (ip), vehicle: saline with Tween-80 91 % of control

O=[N+]([O-])/C(=C/C=C/c1ccccc1)c1ccccc1
inactive: dose: 50.0 mg/kg/injection, schedule: Q01DX009 (ip), vehicle: Klucel (hydroxypropylcellulose) (HPC) 96 % of control | [3] 89 % of control | [5] 86 % of control

CCCCCCCCCCCCCC[n+]1cccc(C#N)c1
inactive: [19] 100 % of control | dose: 10.0 mg/kg/injection, schedule: Q04DX003 (ip), vehicle: saline 93 % of control | [20] 100 % of control | dose: 20.0 mg/kg/injection, schedule: Q04DX003 (ip), vehicle: saline 93 % of control | [21] 97 % of control | dose: 40.0 mg/kg/injection, schedule: Q04DX003 (ip), vehicle: saline 86 % of control

CN(C)C(=O)C1C2C=CC(C3CC23)C1C(=O)N(C)C (stereo unspecified)
inactive: dose: 100.0 mg/kg/injection, schedule: Q04DX003 (ip), vehicle: saline 95 % of control | dose: 200.0 mg/kg/injection, schedule: Q04DX003 (ip), vehicle: saline 90 % of control | dose: 400.0 mg/kg/injection, schedule: Q04DX003 (ip), vehicle: saline 95 % of control

CC(C)N1CCc2cc3c(cc2C1)OCO3
inactive: dose: 5.0 mg/kg/injection, schedule: Q01DX001 (ip), vehicle: saline 101 % of control | [19] 101 % of control | [20] 110 % of control | [21] 104 % of control | dose: 80.0 mg/kg/injection, schedule: Q01DX001 (ip), vehicle: saline 101 % of control

Cc1ccc(S(=O)(=O)N(C)c2cc(Cl)c(C#N)c(Cl)c2)cc1
inactive: [22] 96 % of control | [4] 102 % of control | [23] 96 % of control | [6] 93 % of control and 92 % of control | [24] 89 % of control | [18] 97 % of control and 91 % of control

CCC(C)N(CCNc1cc(C)nc(/N=C(\N)Nc2ccc(Cl)c(Cl)c2)n1)C(C)CC (stereo unspecified)
inactive: [3] 106 % of control | [5] 97 % of control | [13] 86 % of control

NNC(=O)CNc1ccc(F)cc1Cl
inactive: [10] 101 % of control | [11] 105 % of control

Cc1cc(C)c(S(=O)(=O)c2ccc([N+](=O)[O-])c3ccccc23)c(C)c1
inactive: [22] 107 % of control | [23] 91 % of control | [24] 101 % of control

Cc1ccc(S(N)(=O)=O)cc1S(N)(=O)=O
inactive: [22] 94 % of control | [23] 92 % of control | [24] 105 % of control

Cc1cc2c(cc1C)N(C(=O)CN1CCOCC1)CC(=O)N2
inactive: dose: 50.0 mg/kg/injection, schedule: Q01DX009 (ip), vehicle: acetone 95 % of control | dose: 100.0 mg/kg/injection, schedule: Q01DX009 (ip), vehicle: acetone 88 % of control | dose: 100.0 mg/kg/injection, schedule: Q04DX003 (ip), vehicle: acetone 98 % of control | dose: 200.0 mg/kg/injection, schedule: Q01DX009 (ip), vehicle: acetone 95 % of control | dose: 200.0 mg/kg/injection, schedule: Q04DX003 (ip), vehicle: acetone 97 % of control | dose: 400.0 mg/kg/injection, schedule: Q04DX003 (ip), vehicle: acetone 92 % of control

O=C(N=Nc1c(NNC(=O)c2ccc([N+](=O)[O-])cc2)c(O)c2ccccc2c1O)c1ccc([N+](=O)[O-])cc1
inactive: dose: 75.0 mg/kg/injection, schedule: Q04DX003 (ip), vehicle: saline 102 % of control | dose: 150.0 mg/kg/injection, schedule: Q04DX003 (ip), vehicle: saline 89 % of control | dose: 300.0 mg/kg/injection, schedule: Q04DX003 (ip), vehicle: saline 94 % of control

O=C(NC1=NCCS1)C(=O)NC1=NCCS1
inactive: [7] 105 % of control | [8] 100 % of control | [9] 97 % of control
